# Where a name gives a salt, the structure may show the parent alone.
# Legend:
# [1] = result in words, conditions not given
# [2] = result in words, conditions not given; remark: listed apart in the source
# [3] = as compared to any other crystalline form
smiles,measurement,setting,value
"OCCOCCN1CCN(C2=Nc3ccccc3Sc3ccccc32)CC1 [amorphous quetiapine hydrochloride, Quetiapine Hydrochloride]",stability,[1],stable
same,hygroscopicity,[2],non-hygroscopic
same,solubility in water,[3],more soluble in water

# — US20070072840A1, “POLYMORPHIC FORMS OF QUETIAPINE” (priority 2005, published 2007)
